According to ChEMBL document CHEMBL3885861, “Open TG-GATES”:

Species: Rattus norvegicus
Assay: Open TG-GATES - Regimen: Daily Repeat
Type: toxicity, organism-based, Sprague-Dawley
Parameters: regimen Daily Repeat, gender Male, age 6 weeks
Details: in vivo, po, 150 mg/kg, route gavage, dose level Middle; for APTT / Bas / Eos / Fbg / Hb / Ht / Lym / MCH / MCHC / MCV / Mono / Neu / RBC / Ret / WBC / Plat: tissue Blood
[1] = 72 h, tissue Kidney, time 3 day
[2] = 72 h, tissue Plasma, time 3 day

For CC(=O)Oc1ccccc1C(=O)O [ASPIRIN], the APTT (72 h, time 3 day) was 19 s, the Bas (72 h, time 3 day) was 0% and the Eos (72 h, time 3 day) was 1%. For the same molecule, the Fbg (72 h, time 3 day) was 227.8 mg/dL, the Hb (72 h, time 3 day) was 13.4 g/dL and the Ht (72 h, time 3 day) was 39.3%. The Lym (72 h, time 3 day) was 80.8%, the MCH (72 h, time 3 day) was 21.4 pg and the MCHC (72 h, time 3 day) was 34.1%. It also gave an MCV (72 h, time 3 day) of 62.7 fL, a Mono (72 h, time 3 day) of 2.8% and a Neu (72 h, time 3 day) of 14.4%. For the same molecule, the RBC (72 h, time 3 day) was 627.2 x10_4/ul, the Ret (72 h, time 3 day) was 5.9% and the WBC (72 h, time 3 day) was 108.2 x10_2/uL. For the same molecule, the KIDNEY_L [1] was 1.1 g, the KIDNEY_R [1] was 1.1 g and the KIDNEY_TOTAL [1] was 2.1 g. For the same molecule, the ALP [2] was 924.6 IU/L, the ALT [2] was 33.4 IU/L and the AST [2] was 68.4 IU/L. The BUN [2] was 12.2 mg/dL, the CRE [2] was 0.4 mg/dL and the Ca [2] was 10.6 mg/dL. It also gave a Cl [2] of 102.4 meq/L, a DBIL [2] of 0.078 mg/dL and a GLC [2] of 196.6 mg/dL. The IP [2] was 7 mg/dL, the K [2] was 3.7 meq/L and the LDH [2] was 210.2 IU/L. For the same molecule, the Na [2] was 141 meq/L, the PL [2] was 155.8 mg/dL and the RALB [2] was 3.4 g/dL. For the same molecule, the TBIL [2] was 0.1 mg/dL, the TC [2] was 73.8 mg/dL and the TG [2] was 117.6 mg/dL. For the same molecule, the TP [2] was 5.6 g/dL, the gamma-GTP [2] was 1 IU/L and the TERMINAL_BW ([…], time 7 day) was 268.1 g. For the same molecule, the TERMINAL_BW ([…], time 14 day) was 320.9 g, the TERMINAL_BW ([…], time 28 day) was 404.7 g and the APTT ([…], time 7 day) was 19.3 s. It also gave a Bas ([…], time 7 day) of 0%, an Eos ([…], time 7 day) of 1% and a Fbg ([…], time 7 day) of 216 mg/dL. For the same molecule, the Hb ([…], time 7 day) was 14 g/dL, the Ht ([…], time 7 day) was 41.1% and the Lym ([…], time 7 day) was 82.4%. It also gave an MCH ([…], time 7 day) of 20.8 pg, an MCHC ([…], time 7 day) of 34% and an MCV ([…], time 7 day) of 61.3 fL. For the same molecule, the Mono ([…], time 7 day) was 2.4%, the Neu ([…], time 7 day) was 13.2% and the Plat ([…], time 7 day) was 119 x10_4/uL. For the same molecule, the RBC ([…], time 7 day) was 671 x10_4/ul, the Ret ([…], time 7 day) was 4.7% and the WBC ([…], time 7 day) was 119.6 x10_2/uL. For the same molecule, the APTT ([…], time 14 day) was 19.5 s, the Bas ([…], time 14 day) was 0% and the Eos ([…], time 14 day) was 1.8%. The Fbg ([…], time 14 day) was 204.8 mg/dL, the Hb ([…], time 14 day) was 14.9 g/dL and the Ht ([…], time 14 day) was 42.1%. It also gave a Lym ([…], time 14 day) of 77.6%, an MCH ([…], time 14 day) of 21.1 pg and an MCHC ([…], time 14 day) of 35.3%. It also gave an MCV ([…], time 14 day) of 59.7 fL, a Mono ([…], time 14 day) of 2.8% and a Neu ([…], time 14 day) of 17.2%. For the same molecule, the Plat ([…], time 14 day) was 125.3 x10_4/uL, the RBC ([…], time 14 day) was 704.8 x10_4/ul and the Ret ([…], time 14 day) was 3.5%. The WBC ([…], time 14 day) was 156.5 x10_2/uL, the APTT ([…], time 28 day) was 21.3 s and the Bas ([…], time 28 day) was 0%. For the same molecule, the Eos ([…], time 28 day) was 1.4%, the Fbg ([…], time 28 day) was 205.4 mg/dL and the Hb ([…], time 28 day) was 15.4 g/dL. The Ht ([…], time 28 day) was 44.6% and the Lym ([…], time 28 day) was 80.2%.
